Patent US20240226000A9, “TRANSDERMAL PENETRANT FORMULATIONS FOR ADMINISTRATION OF MEDICAMENTS” (Dyve Biosciences, Inc., priority 2021, published 2024)
Where a name gives a salt, the structure may show the parent alone. Read-outs that look alike come from different tables or passages of the source.

What was measured:
[1] = Solubility of actives in aqueous medium / percent solution
Text: (§1) In this example, mice were transdernally treated with formulations of the present disclosure comprising essentially insoluble class 2 or class 4 molecules.

in vivo = assay: in vivo
Text: as §1

[2] = mouse, in vivo, topical or ocular
[3] = active in the transdermal formulation
[4] = mice transdermally treated with a formulation comprising the molecule

| Compound | Estimated Active % in Solution [1] [%] | AUC(0-t) (in vivo; [2]) [ng·h/mL] | Cmax (in vivo; [2]) [ng/mL] | Tmax (in vivo; [2]) [min] | bioavailability after transdermal delivery (in vivo; [2]) | Estimated Active % in Solution [1, 3] [%] | bioavailability after transdermal delivery (in vivo; [4]) | % Solution (Relative Dosing) [1] [%] | solubility in aqueous medium [1] [%] | AUC(0-inf) (in vivo; [2]) [ng·h/mL] | half-life (in vivo; [2]) [min] | % Solution (Relative Dosing) ([1]; share of the active in solution, the cell beside it prints the amount in the formulation (3.5, 4.23, 3.6, 8, 15), not a dose range) [%] |
| --- | --- | --- | --- | --- | --- | --- | --- | --- | --- | --- | --- | --- |
| COc1ccc(-n2nc(C(N)=O)c3c2C(=O)N(c2ccc(N4CCCCC4=O)cc2)CC3)cc1 [apixaban] | <1 | 3930 | 1880 | 30 | improved bioavailability |  |  |  |  |  |  |  |
| CCOc1cc2ncc(C#N)c(Nc3ccc(OCc4ccccn4)c(Cl)c3)c2cc1NC(=O)/C=C/CN(C)C [Free Base Neratinib] |  |  |  |  |  | <1 | high or relatively high bioavailability |  |  |  |  |  |
| CCCc1nn(C)c2c(=O)[nH]c(-c3cc(S(=O)(=O)N4CCN(C)CC4)ccc3OCC)nc12 [Sildenafil Citrate] | <1 |  | 4390 | 30 | high or relatively high bioavailability |  |  | <1 | ≤ 1 | 9660 | 56.4 |  |
| Neratinib Maleate |  |  |  |  |  | <1 | high or relatively high bioavailability |  |  |  |  | <1 |
